Data published in patent US9718769B2, “Pulverulent compositions of a complex between an acid and a metal and method of preparation thereof” (INNOV'IA 3I, priority 2012, dated 2017).
“Also recorded” adds a separate entry of the source. Marks after values point to notes of the source that are not given here.

What was measured:
laying hens = assay: Feeding laying hens: laying performance and egg parameters; assay type: in vivo; details: for Albumen / Average weight of the eggs / Consumption index / Daily food intake / Laying frequency / Weight of eggs / Yolk / Final body weight: 0.13% methionine equivalent in feed, mean; for Final body weight: after 6 weeks
Method: Eighty laying hens aged 45 weeks were housed for 6 weeks and were distributed at random into […] equal groups (20 per group). Each hen was kept in an individual cage at a temperature of (20±2° C.) with controlled lighting conditions. All the hens were offered a similar basic diet, with or without addition of DLM, of HMTBA-Ca or of a 50/50 mixture (HMTBA-Ca: […] All the laying hens had free access to drinking water and were fed throughout the 6-week period of the experiment.

growing chickens [1] = assay: Feeding growing chickens: growth performance; assay type: in vivo; details: 46-day-old chickens, 0.3% in feed (0.24% finishing phase); mean ± standard deviation
Method: (§1) One hundred and forty-seven commercial chickens (1 day old, 48 g) were housed from day 1 to day 46, including the starting phase (days 1-21) and the finishing phase (days 22-46). All the chickens were randomly distributed in seven equal groups (21 per group), and each group was made up of three subgroups of 7 birds each. Each subgroup was kept in an enclosure at a temperature of (28±2° C.), with controlled lighting conditions. All the chickens were offered a similar basic diet, with or without addition of DLM, HMTBA or HMTBA-Ca at levels of 0 (control) or 0.3% in the starting phase and 0 or 0.24% in the finishing phase (Table 4). All the chickens had free access to food and drinking water throughout the test period of 46 days. The weight of the chickens was measured every week and food intake was monitored throughout the experiment.
(§2) At the end of the experiment, the birds were weighed individually and sacrificed. The abdominal fat, the muscles of the thigh and of the breast were taken, lyophilized and weighed.

growing chickens [2] = assay: Feeding growing chickens: composition of the carcass; assay type: in vivo; details: for DB, weight of the muscles of the breast / DL, weight of the muscles of the thigh / PDAT, ratio of the weight of the abdominal fat to that of the eviscerated chicken / PDB, ratio of the weight of the muscles of the breast (without bone or skin) to that of the eviscerated chicken / PDL, ratio of the weight of the muscles of the thigh (without bone or skin) to that of the eviscerated chicken: 46-day chickens, mean ± standard deviation
Method: as §1, §2

growing chickens [3] = assay: Feeding growing chickens: apparent digestibility of nutrients; assay type: in vivo; details: 0.3% in feed; for Apparent digestibility of ash / Apparent digestibility of crude fats / Apparent digestibility of crude proteins / Apparent digestibility of dry matter: 46-day chickens, mean ± standard deviation for 10 chickens
Method: as §1
The excrement of the chickens was collected for the 3 days following the 42nd day of the experiment, were frozen and stored (at −20° C.) for later chemical analyses.

[4] = Crystallinity by DSC in isothermal mode and X-ray diffraction; assay type: physicochemical; details: deduced from DSC (R) or X-ray diffraction (T7)
Method: Samples T7 and R were analysed by X-ray diffraction using a Bruker APEX-II Quasar diffractometer equipped with a molybdenum microsource (λ=0.71073 Å). Each sample was ground beforehand in a mortar for two minutes. Each of the powders thus obtained is then transferred to a capillary with diameter of 0.5 mm that is transparent to X-rays, and is then mounted on a goniometer. The recording characteristics are perfectly identical for each sample, namely: […]

Compound | Albumen (laying hens; 6 weeks) [g/egg] | Average weight of the eggs (laying hens; 6 weeks) [g/egg] | Consumption index (laying hens; 6 weeks) [g feed/g egg] | Daily food intake (laying hens; 6 weeks) [g/day] | Laying frequency (laying hens; 6 weeks) [%] | Weight of eggs (laying hens; 6 weeks) [g/day] | Yolk (laying hens; 6 weeks) [g/egg] | Final body weight (laying hens) [g/hen] | Feeding:gain (growing chickens [1]) | Final body weight (growing chickens [1]) | Food intake (growing chickens [1]) [g/chicken/day] | Gain in body weight (growing chickens [1]) | DB, weight of the muscles of the breast (growing chickens [2]; 0.3% in feed) | DL, weight of the muscles of the thigh (growing chickens [2]; 0.3% in feed) | PDAT, ratio of the weight of the abdominal fat to that of the eviscerated chicken (growing chickens [2]; 0.3% in feed) | PDB, ratio of the weight of the muscles of the breast (without bone or skin) to that of the eviscerated chicken (growing chickens [2]; 0.3% in feed) | PDL, ratio of the weight of the muscles of the thigh (without bone or skin) to that of the eviscerated chicken (growing chickens [2]; 0.3% in feed) | Apparent digestibility of ash (growing chickens [3]) | Apparent digestibility of crude fats (growing chickens [3]) | Apparent digestibility of crude proteins (growing chickens [3]) | also measured
CSCCC(N)C(=O)O (racemic) [DLM, DL-methionine, reference compound] | 38.38 | 63.4 | 1.87 | 112.4 | 95 | 60.3 | 16.38 | 1834.9 | 2.01 ± 0.10 g:g | 3.17 ± 0.15^ab kg/chicken | 141.51 ± 0.24 | 70.47 ± 3.37^ab g/chicken/day | 596.88 ± 56.68^abc g | 586.03 ± 23.43^ab g | 1.88 ± 0.43^a % | 22.77 ± 1.44^b % | 20.12 ± 0.22^a % | 56.02 ± 1.01^b % | 86.15 ± 0.93% | 63.70 ± 2.85^cd % | Apparent digestibility of dry matter (growing chickens [3]): 78.22 ± 1.70^c %
CSCCC(O)C(=O)[O-].CSCCC(O)C(=O)[O-].[Ca+2] (stereo not drawn) [HMTBA-Ca, (HMTBA)2Ca] | 39.53 | 64.9 | 1.82 | 112.7 | 95 | 62.0 | 16.47 | 1897.2 | 1.91 ± 0.12 g:g | 3.38 ± 0.28^ab kg/chicken | 144.53 ± 20.93 | 75.08 ± 6.18^ab g/chicken/day | 617.54 ± 45.21^bc g | 588.64 ± 38.07^ab g | 2.49 ± 0.59^b % | 22.98 ± 3.00^b % | 22.06 ± 1.64^c % | 44.62 ± 0.89^a % | 90.28 ± 0.20^c % | 66.44 ± 0.37^cd % | Albumen content of the eggs, more relative to the eggs of hens fed with DLM (laying hens; 6 weeks, relative to DLM): 3%; Average weight of the eggs, higher relative to that obtained with DLM (laying hens; 6 weeks, relative to DLM): 2.3%; Percentage of abdominal fat (in words) (growing chickens [2]; chickens, 0.3% in feed, 46 days): increase in the percentage of abdominal fat; Weight of the muscles of the thigh and breast relative to DLM / the other groups (in words) (growing chickens [2]; chickens, 46 days): significantly higher; also recorded: highest weight of muscles of the thigh and breast; Apparent digestibility of dry matter (growing chickens [3]): 81.80 ± 0.32^d %; Digestibility of the nutrients relative to the other two forms of methionine (in words) (growing chickens [3]; chickens, 46 days): far better digestibility
CSCCC(O)C(=O)[O-].CSCCC(O)C(=O)[O-].[Ca+2] (stereo not drawn) [R, (HMTBA)2Ca] |  |  |  |  |  |  |  |  |  |  |  |  |  |  |  |  |  |  |  |  | Degree of crystallinity [4]: 100%
